Source: patent US20110269759A1, “PYRIMIDINE COMPOUNDS AS DELTA OPIOID RECEPTOR MODULATORS” (priority 2009, published 2011)
Read-outs that look alike come from different tables or passages of the source. Each block holds one compound with its values, some of them ahead of it.

Columns and labels:
[1] = target: T1, Delta Opioid Receptor (Mus musculus, UniProt P32300); test: NG108-15, 24-well delta opioid receptor binding assay ([3H]naltrindole)
T1 construct: NG108-15 cell membranes were purchased from Applied Cell Sciences (Rockville, Md.); host or cells: NG108-15 cell membranes (purchased)
T1 sequence (P32300 whole entry): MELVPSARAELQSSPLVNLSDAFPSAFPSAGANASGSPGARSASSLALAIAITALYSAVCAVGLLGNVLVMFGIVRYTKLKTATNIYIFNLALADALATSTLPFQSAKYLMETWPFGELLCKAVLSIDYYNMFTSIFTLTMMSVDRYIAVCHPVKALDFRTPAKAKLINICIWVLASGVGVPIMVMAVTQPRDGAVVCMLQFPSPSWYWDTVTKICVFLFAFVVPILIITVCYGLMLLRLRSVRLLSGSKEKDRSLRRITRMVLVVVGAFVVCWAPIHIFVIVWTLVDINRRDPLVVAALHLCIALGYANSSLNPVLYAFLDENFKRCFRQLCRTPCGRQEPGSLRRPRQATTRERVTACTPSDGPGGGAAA

[2] = target: T2, δ-opioid receptor (Mus musculus, UniProt P32300); test: [35S]GTPγS binding assay in NG108-15 cell membranes (delta opioid functional assay), 200 nM screen; format: biochemical; set-up: NG108-15 cell membranes were purchased from Applied Cell Sciences (Rockville, Md.); host or cells: NG108-15 cell membranes (purchased); conditions: 200 nM compound, relative to calculated max of SNC80 dose response
T2 sequence (P32300 whole entry): as above

[3] = target: T2, δ-opioid receptor; test: [35S]GTPγS δ-opioid receptor functional assay (EC50, relative efficacy, % inhibition); format: biochemical; set-up: NG108-15 cell membranes were purchased from Applied Cell Sciences (Rockville, Md.); conditions: for inhibition at 10 µM: read-out: GTPγS δ-opioid receptor % Inh @10 μM
[4] = target: T3, Delta Opioid Receptor (Rattus norvegicus, UniProt P33533); test: Rat brain delta opioid receptor binding assay ([3H]DPDPE or [3H]naltrindole)
T3 construct: the forebrains were homogenized in Tris buffer in a Teflon®-glass homogenizer; from tissue; host or cells: forebrain of male Wistar rats, particulate membrane preparation
T3 sequence (P33533 whole entry): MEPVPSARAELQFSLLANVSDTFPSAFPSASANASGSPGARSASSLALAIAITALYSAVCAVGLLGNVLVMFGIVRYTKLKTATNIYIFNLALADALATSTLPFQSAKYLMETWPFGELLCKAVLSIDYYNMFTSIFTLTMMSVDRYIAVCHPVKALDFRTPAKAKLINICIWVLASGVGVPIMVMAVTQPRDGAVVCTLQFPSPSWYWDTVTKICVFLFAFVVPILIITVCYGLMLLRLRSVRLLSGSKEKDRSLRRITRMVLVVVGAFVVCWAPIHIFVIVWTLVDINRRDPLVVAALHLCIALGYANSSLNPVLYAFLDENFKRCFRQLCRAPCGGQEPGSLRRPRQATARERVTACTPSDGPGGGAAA

[5] = target: T4, Mu Opioid Receptor (Rattus norvegicus, UniProt P33535); test: Rat brain mu opioid receptor binding assay ([3H]DAMGO)
T4 construct: the forebrains were homogenized in Tris buffer in a Teflon®-glass homogenizer; from tissue; host or cells: forebrain of male Wistar rats, particulate membrane preparation
T4 sequence (P33535 whole entry): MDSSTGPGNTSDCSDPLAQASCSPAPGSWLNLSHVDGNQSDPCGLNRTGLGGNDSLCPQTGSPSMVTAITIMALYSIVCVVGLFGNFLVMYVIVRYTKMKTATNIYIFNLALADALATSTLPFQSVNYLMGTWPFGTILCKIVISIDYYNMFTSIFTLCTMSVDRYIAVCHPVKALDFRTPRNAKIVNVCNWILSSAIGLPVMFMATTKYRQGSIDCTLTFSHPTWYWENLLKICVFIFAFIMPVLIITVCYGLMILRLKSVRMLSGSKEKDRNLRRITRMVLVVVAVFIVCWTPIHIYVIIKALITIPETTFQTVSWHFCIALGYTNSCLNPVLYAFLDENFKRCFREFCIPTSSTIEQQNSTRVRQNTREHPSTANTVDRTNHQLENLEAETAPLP

[6] = tested on: mice; test: Mouse Graded Abdominal Irritant Test (GrAIT); format: in vivo; conditions: 10% Solutol, 30 min pretreatment
Description: Test compound or vehicle was administered s.c. or p.o. to mice. Following the pretreatment time, an i.p. injection of 0.6% of acetic acid in 0.5 mL was administered. Five min after acetic acid administration, mice were placed into clear chambers and were continuously observed for 5 min. Behavioral responses including twisting and elongation of the body that extended through the hindlimbs were counted and averaged for the group of animals over the observation period.

[7] = NG108-15 cell membranes, ~0.2 nM [3H]naltrindole, read-out: δ-binding NG108 cell membrane Ki

- Ki [1, 7]: 0.00139 µM
- GTPγS δ-RelEfficacy @200 nM [2]: 0.39
SMILES: COc1ccc(Oc2cc(-c3cncnc3)ccc2NC[C@@H]2CCCN2)cc1 [Cpd 42]

- Ki [1, 7]: 0.000436 µM
- GTPγS δ-opioid receptor Rel Efficacy [3]: 1.1554
- EC50 ([3]; read-out: GTPγS δ-opioid receptor EC50): 0.118 µM
- GTPγS δ-RelEfficacy @200 nM [2]: 0.45
SMILES: COc1ccc(Oc2cc(-c3cncc(C#N)c3)ccc2NC[C@@H]2CCCN2)cc1 [Cpd 44]

SMILES: COc1ccc(Oc2cc(-c3cncc(F)c3)ccc2NC[C@@H]2CCCN2)cc1 [Cpd 43]
- Ki [1]: 0.00076 µM
- EC50 [3]: 0.218 µM
- GTPγS δ-opioid receptor Rel Efficacy [3]: 1.0908
- GTPγS δ-RelEfficacy @200 nM [2]: 0.43

- Ki [1, 7]: 0.029 µM
SMILES: CCN(C[C@@H]1CCCN1)c1ccc(-c2cccnc2)cc1Oc1ccc(OC)cc1 [Cpd 49, (S)-Ethyl-[2-(4-methoxy-phenoxy)-4-pyridin-3-yl-phenyl]-pyrrolidin-2-ylmethyl-amine]

SMILES: CCN(C[C@@H]1CCCN1)c1ccc(-c2cncc(F)c2)cc1Oc1ccc(OC)cc1 [Cpd 50]
- Ki [1]: 0.023 µM

SMILES: CCN(CC)C(=O)c1ccc(NC[C@@H]2CCCN2)c(Oc2ccc(OC)cc2)c1 [Cpd 10]
- Ki ([4]; rat forebrain membranes, 0.25 nM [3H]naltrindole, read-out: δ-binding (Naltrindole ligand) Ki): 0.936 µM
- Ki [5]: 0.936 µM
- # abdominal stretches (cpd) ([6]; 30 mg/kg p.o.): 19
- # abdominal stretches (cpd) ([6]; 30 mg/kg s.c.): 11
- # abdominal stretches (cpd) ([6]; 100 mg/kg p.o.): 17.9
- # abdominal stretches (cpd) ([6]; 300 mg/kg p.o.): 21.2

SMILES: CCN(CC)C(=O)/C=C/c1ccc(NC[C@@H]2CCCN2)c(Oc2ccc(OC)cc2)c1 [Cpd 1, (2E)-N,N-Diethyl-3-[3-(4-methoxyphenoxy)-4-{[(2S)-pyrrolidin-2-ylmethyl]amino}phenyl]prop-2-enamide]
- Ki [4]: 0.00608 µM
- Ki [5]: 3.37 µM
- # abdominal stretches (cpd) ([6]; 30 mg/kg s.c.): 10.9
- EC50 [3]: 0.109 µM
- GTPγS δ-opioid receptor Rel Efficacy [3]: 0.8328
- inhibition at 10 µM [3]: 2.26%

SMILES: COc1ccc(Oc2cc(-c3cccnc3)ccc2NC[C@@H]2CCCN2)cc1 [Cpd 39]
- Ki [1]: 0.00165 µM
- Ki [4]: 0.0221 µM
- Ki [5]: 3.11 µM
- EC50 [3]: 0.111 µM
- GTPγS δ-opioid receptor Rel Efficacy [3]: 0.9245
- inhibition at 10 µM [3]: 13.4%

SMILES: COc1ccc(Oc2cc(-c3cncc(F)c3)ccc2NC[C@@H]2C[C@@H](F)CN2)cc1 [Cpd 25]
- EC50 [3]: 0.0924 µM
- GTPγS δ-opioid receptor Rel Efficacy [3]: 1.0217
- GTPγS δ-RelEfficacy @200 nM [2]: 0.78

SMILES: COc1ccc(Oc2cc(-c3cncc(SC)c3)ccc2NC[C@@H]2C[C@@H](F)CN2)cc1 [Cpd 26]
- EC50 [3]: 0.187 µM
- GTPγS δ-opioid receptor Rel Efficacy [3]: 1.0716
- GTPγS δ-RelEfficacy @200 nM [2]: 0.7

SMILES: COc1ccc(Oc2cc(-c3cncc(C#N)c3)ccc2NC[C@@H]2C[C@@H](F)CN2)cc1 [Cpd 24, (2S,4R)-5-[4-[(4-Fluoro-pyrrolidin-2-ylmethyl)-amino]-3-(4-methoxy-phenoxy)-phenyl]-nicotinonitrile]
- EC50 [3]: 0.0461 µM
- GTPγS δ-opioid receptor Rel Efficacy [3]: 1.0158
- GTPγS δ-RelEfficacy @200 nM [2]: 1.01
